Laboratory results published in patent publication US20250136570A1 (Tango Therapeutics, Inc., priority 2021, published 2025).

What was measured:
Recombinant HDAC1 = Recombinant HDAC1 (Homo sapiens (Human), UniProt Q13547); assay: HDAC1 inhibition, Fluor de Lys fluorescent enzyme assay; type: biochemical; settings: 3 hours pre-incubation at room temp; 6 nM enzyme; 16 μM Fluor de Lys substrate; duplicate
Text: (§1) Recombinant HDAC1 (cat #: 50051) and HDAC3/NCor2 (cat #: 50003) enzymes were purchased from BPS Bioscience (San Diego, CA, US). Assay reagents for the detection of HDAC enzyme activity (Fluor de Lys®—Green substrate and Developer kits) were purchased from Enzo Life Science (Farmingdale, NY, US). Plates used to conduct the enzyme reaction were Proxiplate-384 (cat #: 6008280) Plus from PerkinElmer (Waltham, MA, US). TSA, an HDAC inhibitor, was purchased from Enzo Life Science (cat #BML-GR309-9090) The remainder of the reagents used to prepare the assay buffer were purchased from Sigma-Aldrich (St Louis, MO, US). Unless stated otherwise, HDAC1 and 3 assays were conducted in 50 mM Tris buffer, pH 8, 137 mM NaCl, 2.7 mM KCl, 0.01% BSA.
(§2) IC50 determination for HDAC1 and HDAC3—Prior to adding reagents, 50 nL/well of compound were added to Proxiplates using an Echo dispenser instrument (Beckman Coulter, CA, US). After addition of compound, 2.5 μL/well of 2× enzyme solution was added and the enzyme was pre-incubated with compound for 3 hours at room temp. (˜22° C.). After the pre-incubation period, the enzyme reaction was initiated by adding 2.5 μL/well of 2× Fluor de Lys® substrate solution. The assay reaction was stopped after one hour by adding 5 μl/well of a 0.66× Developer solution containing TSA (3.2 μM). The final product of the enzyme reaction was read using a Spectramax plate reader instrument (Molecular Devices, CA, US) using a fluorescent readout (Ex 360 nm/Em 460 nm). The final enzyme concentrations in the assay buffer for HDAC1 and 3 were 6 and 1.2 nM, respectively. The final Fluor de Lys® substrate concentration in the assay buffer was 16 μM for all HDAC enzymes. IC50 values were determined using the following equation: […]
(§3) Where Efree and Eo are the free and total amount of HDAC enzyme in the reaction mixture, n is the hill coefficient, I is the free inhibitor concentration, and IC50 is the measure of the potency equivalent to the inhibitor concentration that leads to a 50% occupancy of the total enzyme. Each data was generated in duplicate.

HDAC3/NCor2 = HDAC3/NCor2 (Homo sapiens (Human), UniProt O15379); assay: HDAC3 inhibition, Fluor de Lys fluorescent enzyme assay; type: biochemical; settings: 3 hours pre-incubation at room temp; 1.2 nM enzyme; 16 μM Fluor de Lys substrate; duplicate
Text: as §1, §2, §3

Chain of Recombinant HDAC1 (Q13547 whole entry): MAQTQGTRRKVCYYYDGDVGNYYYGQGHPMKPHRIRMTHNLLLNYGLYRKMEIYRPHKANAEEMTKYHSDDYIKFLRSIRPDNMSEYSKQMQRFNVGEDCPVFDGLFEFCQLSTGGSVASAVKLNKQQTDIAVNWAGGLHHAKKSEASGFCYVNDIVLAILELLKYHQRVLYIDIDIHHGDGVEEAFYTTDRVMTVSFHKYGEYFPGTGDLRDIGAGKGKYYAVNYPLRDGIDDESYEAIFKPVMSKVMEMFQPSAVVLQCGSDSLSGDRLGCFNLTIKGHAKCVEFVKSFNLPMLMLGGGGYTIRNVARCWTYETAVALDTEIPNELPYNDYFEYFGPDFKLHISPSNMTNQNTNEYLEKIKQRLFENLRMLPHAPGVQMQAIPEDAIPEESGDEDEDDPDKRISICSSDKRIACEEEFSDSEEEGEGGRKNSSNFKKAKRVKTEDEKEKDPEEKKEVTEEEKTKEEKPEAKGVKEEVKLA
Chain of HDAC3/NCor2 (O15379 whole entry): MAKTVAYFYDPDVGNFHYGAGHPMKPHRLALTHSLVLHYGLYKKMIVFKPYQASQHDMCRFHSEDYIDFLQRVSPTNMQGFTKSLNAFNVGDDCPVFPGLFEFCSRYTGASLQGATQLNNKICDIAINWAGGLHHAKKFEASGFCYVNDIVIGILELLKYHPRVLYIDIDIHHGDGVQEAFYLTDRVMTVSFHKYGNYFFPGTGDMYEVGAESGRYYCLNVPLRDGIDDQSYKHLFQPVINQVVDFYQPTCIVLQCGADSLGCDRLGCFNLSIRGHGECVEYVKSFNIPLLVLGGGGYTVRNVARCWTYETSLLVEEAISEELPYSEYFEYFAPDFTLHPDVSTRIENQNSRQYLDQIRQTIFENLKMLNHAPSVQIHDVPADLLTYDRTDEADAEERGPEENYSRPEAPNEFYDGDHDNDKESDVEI
Chain of HDAC3/NCor2 (Q9Y618 395-489 partner): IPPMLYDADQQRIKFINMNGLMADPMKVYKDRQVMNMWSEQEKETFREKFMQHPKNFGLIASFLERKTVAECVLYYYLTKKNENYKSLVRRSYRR

SMILES | IC50 (Recombinant HDAC1) [nM] | IC50 (HDAC3/NCor2) [nM]
CS(=N)(=O)c1ccc(C(=O)Nc2cc(-c3ncccn3)ccc2N)cc1 (stereo not shown) [Compound 158, N-(2-amino-5-pyrimidin-2-yl-phenyl)-4-(methylsulfonimidoyl)benzamide] | 500 to 2000 | > 2000
CS(=N)(=O)c1cc2ccc(C(=O)Nc3cc(-c4ccc(F)cc4)ccc3N)cc2s1 (stereo not shown) [Compound 236, N-[2-amino-5-(4-fluorophenyl)phenyl]-2-(methylsulfonimidoyl)benzothiophene-6-carboxamide] | < 100 | 100 to 500
C[S@](=N)(=O)c1ccc(C(=O)Nc2cc(-c3ccc(F)s3)ccc2N)cc1 [Compound 149, (S)—N-[2-amino-5-(5-fluoro-2-thienyl)phenyl]-4-(methylsulfonimidoyl)benzamide] | < 100 | 500 to 2000
N=S(=O)(c1ccc(C(=O)Nc2cc(-c3ccc(F)cc3)ccc2N)cn1)c1cnc[nH]1 (stereo not shown) [Compound 219, N-[2-amino-5-(4-fluorophenyl)phenyl]-6-(1H-imidazol-5-ylsulfonimidoyl)pyridine-3-carboxamide] | < 100 | 500 to 2000
CS(=N)(=O)c1ccc(C(=O)Nc2cc(-c3ccccn3)ccc2N)cc1 (stereo not shown) [Compound 119, N-[2-amino-5-(2-pyridyl)phenyl]-4-(methylsulfonimidoyl)benzamide] | 100 to 500 | > 2000
COCCOCc1ccc(S(=N)(=O)c2ccc(C(=O)Nc3cc(-c4ccc(F)cc4)ccc3N)cc2)cn1 (stereo not shown) [Compound 246, N-[2-amino-5-(4-fluorophenyl)phenyl]-4-[[6-(2-methoxyethoxymethyl)-3-pyridyl]sulfonimidoyl]benzamide] | < 100 | 500 to 2000

The remaining lines, values ahead:

IC50 (Recombinant HDAC1) [nM] | IC50 (HDAC3/NCor2) [nM] | SMILES
< 100 | 500 to 2000 | CS(=N)(=O)c1ccc(C(=O)Nc2cc(-c3cccs3)ccc2N)nc1 (stereo not shown) [Compound 113, N-[2-amino-5-(2-thienyl)phenyl]-5-(methylsulfonimidoyl)pyridine-2-carboxamide]
< 100 | 500 to 2000 | CCN=S(C)(=O)c1ccc2oc(C(=O)Nc3cc(-c4ccc(F)cc4)ccc3N)cc2c1 (stereo not shown) [Compound 237, N-[2-amino-5-(4-fluorophenyl)phenyl]-5-(N-ethyl-S-methyl-sulfonimidoyl)benzofuran-2-carboxamide]
< 100 | 500 to 2000 | CS(=N)(=O)c1cnc(C(=O)Nc2cc(-c3ccc(F)cc3)ccc2N)s1 (stereo not shown) [Compound 188, N-[2-amino-5-(4-fluorophenyl)phenyl]-5-(methylsulfonimidoyl)thiazole-2-carboxamide]
< 100 | 500 to 2000 | N=S(=O)(c1ccc(C(=O)Nc2cc(-c3ccc(F)cc3)ccc2N)cc1)c1ccc(F)c(F)c1 (stereo not shown) [Compound 221, N-[2-amino-5-(4-fluorophenyl)phenyl]-4-[(3,4-difluorophenyl)sulfonimidoyl]benzamide]
< 100 | 500 to 2000 | CS(=N)(=O)c1cc2cc(C(=O)Nc3cc(-c4ccc(F)cc4)ccc3N)ccc2o1 (stereo not shown) [Compound 248, N-[2-amino-5-(4-fluorophenyl)phenyl]-2-(methylsulfonimidoyl)benzofuran-5-carboxamide]
< 100 | 100 to 500 | N=S(=O)(c1ccc(C(=O)Nc2cc(-c3ccc(F)cc3)ccc2N)cc1)c1ccccc1F (stereo not shown) [Compound 197, N-[2-amino-5-(4-fluorophenyl)phenyl]-4-[(2-fluorophenyl)sulfonimidoyl]benzamide]
< 100 | 100 to 500 | Cc1nc[nH]c1S(=N)(=O)c1ccc(C(=O)Nc2cc(-c3ccc(F)cc3)ccc2N)cc1 (stereo not shown) [Compound 209, N-[2-amino-5-(4-fluorophenyl)phenyl]-4-[(4-methyl-1H-imidazol-5-yl)sulfonimidoyl]benzamide]
< 100 | 500 to 2000 | CS(=N)(=O)c1ccc(C(=O)Nc2cc(-c3ccc(F)cc3)ccc2N)cn1 (stereo not shown) [Compound 129, N-[2-amino-5-(4-fluorophenyl)phenyl]-6-(methylsulfonimidoyl)pyridine-3-carboxamide]
